Results taken from US20060069132A1, “Azolecarboxamide herbicides” (priority 2004, published 2006).
Like-named read-outs stand apart in the source and are kept apart here.

Tests used:
barnyardgrass [1] = experiment: Test B pre-/postemergence herbicide test; type: in vivo, Echinochloa crus-galli; settings: Echinochloa crus-galli; for pest or weed control at 125 g/ha: 125 g ai/ha; for pest or weed control at 500 g/ha: 500 g ai/ha
Procedure, shortened: (§1)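 Pre: seeds sown, then sprayed. Post: 1–4-leaf plants (2–18 cm) sprayed at the same time. Paddy: flooded, treated at 2-leaf stage. Formulation: non-phytotoxic solvent with surfactant. Greenhouse 13–15 days; visual 0–100 score relative to controls.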

cocklebur = experiment: Test B pre-/postemergence herbicide test; type: in vivo, Xanthium strumarium; settings: Xanthium strumarium; for pest or weed control at 125 g/ha: 125 g ai/ha; for pest or weed control at 500 g/ha: 500 g ai/ha
Procedure, shortened: as §1

corn = experiment: Test B pre-/postemergence herbicide test; type: in vivo, Zea mays; settings: Zea mays
Procedure, shortened: (§2)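 Flooded paddy rice and barnyardgrass were treated at the 2-leaf stage; upland plantings received compound either on sown seed or on 1- to 4-leaf seedlings. All were kept 13–15 days in a greenhouse and scored visually, 0–100, relative to untreated plants.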

giant foxtail = experiment: Test B pre-/postemergence herbicide test; type: in vivo, Setaria faberi; settings: Setaria faberi, 336 h; for pest or weed control at 125 g/ha: 125 g ai/ha; for pest or weed control at 500 g/ha: 500 g ai/ha
Procedure, shortened: as §2

lambsquarters = experiment: Test B pre-/postemergence herbicide test; type: in vivo, Chenopodium album; settings: Chenopodium album, 336 h; for pest or weed control at 125 g/ha: 125 g ai/ha; for pest or weed control at 500 g/ha: 500 g ai/ha
Procedure, shortened: as §2

morningglory = experiment: Test B pre-/postemergence herbicide test; type: in vivo, Ipomoea coccinea; settings: Ipomoea, 336 h; for pest or weed control at 125 g/ha: 125 g ai/ha; for pest or weed control at 500 g/ha: 500 g ai/ha
Procedure, shortened: as §1

pigweed = experiment: Test B pre-/postemergence herbicide test; type: in vivo, Amaranthus retroflexus; settings: Amaranthus retroflexus, 336 h; for pest or weed control at 125 g/ha: 125 g ai/ha; for pest or weed control at 500 g/ha: 500 g ai/ha
Procedure, shortened: as §2

velvetleaf = experiment: Test B pre-/postemergence herbicide test; type: in vivo, Abutilon theophrasti; settings: Abutilon theophrasti, 336 h; for pest or weed control at 125 g/ha: 125 g ai/ha; for pest or weed control at 500 g/ha: 500 g ai/ha
Procedure, shortened: as §2

blackgrass = experiment: Test B postemergence herbicide test; type: in vivo, Alopecurus myosuroides; settings: Alopecurus myosuroides, post-emergence, 336 h, postemergence, visual rating, scale 0 (no effect) to 100 (complete control), read-out: Blackgrass plant response rating
Procedure, shortened: (§3)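 Read-out: visual comparison with controls, scored 0 to 100, where 100 means complete control and 0 no effect. Formulated chemicals were applied postemergence to plants 2–18 cm tall (1- to 4-leaf), or to flooded-paddy plants at the 2-leaf stage, then held 13 to 15 days under glass.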

wheat = experiment: Test B postemergence herbicide test; type: in vivo, Triticum aestivum; settings: Triticum aestivum, post-emergence, 336 h, postemergence, 500 g ai/ha; visual rating, scale 0 (no effect) to 100 (complete control); read-out: Wheat plant response rating
Procedure, shortened: as §3

wild oat = experiment: Test B postemergence herbicide test; type: in vivo, Avena fatua; settings: Avena fatua, post-emergence, 336 h, postemergence, visual rating, scale 0 (no effect) to 100 (complete control), read-out: Oat, Wild plant response rating
Procedure, shortened: as §3

rice = experiment: Test B flooded paddy test; type: in vivo, Oryza sativa; settings: Oryza sativa, 336 h, 1000 g ai/ha, visual rating, scale 0 to 100 (0 no effect, 100 complete control), 13 to 15 days, read-out: Rice plant response rating
Procedure, shortened: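 After treating 2-leaf paddy plants or 2–18 cm postemergence plants (1 to 4 leaves) with formulated chemical, researchers kept them in a greenhouse for 13–15 days. Effects were judged visually versus controls: 0 indicates none, 100 total control.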

[2] = tested on: small flower umbrella sedge; experiment: Test B flooded paddy test; type: in vivo, Cyperus difformis; settings: Cyperus difformis, 336 h, 1000 g ai/ha, visual rating, scale 0 to 100 (0 no effect, 100 complete control), 13 to 15 days, read-out: Sedge, Umbrella plant response rating
Procedure, shortened: as §3

ducksalad = experiment: Test B flooded paddy test; type: in vivo, Heteranthera limosa; settings: Heteranthera limosa, 336 h, 1000 g ai/ha, visual rating, scale 0 to 100 (0 no effect, 100 complete control), 13 to 15 days, read-out: Ducksalad plant response rating
Procedure, shortened: as §3

barnyardgrass [3] = experiment: Test B flooded paddy test; type: in vivo, Echinochloa crus-galli; settings: Echinochloa crus-galli, 336 h, 1000 g ai/ha, visual rating, scale 0 to 100 (0 no effect, 100 complete control), 13 to 15 days, read-out: Barnyardgrass plant response rating
Procedure, shortened: as §3

[4] = post-emergence, postemergence, visual rating, scale 0 (no effect) to 100 (complete control), read-out: Barnyardgrass plant response rating
[5] = post-emergence, postemergence, visual rating, scale 0 (no effect) to 100 (complete control), read-out: Cocklebur plant response rating
[6] = post-emergence, postemergence, visual rating, scale 0 (no effect) to 100 (complete control), read-out: Foxtail, Giant plant response rating
[7] = post-emergence, postemergence, visual rating, scale 0 (no effect) to 100 (complete control), read-out: Lambsquarters plant response rating
[8] = post-emergence, postemergence, visual rating, scale 0 (no effect) to 100 (complete control), read-out: Morningglory plant response rating
[9] = post-emergence, postemergence, visual rating, scale 0 (no effect) to 100 (complete control), read-out: Pigweed plant response rating
[10] = post-emergence, postemergence, visual rating, scale 0 (no effect) to 100 (complete control), read-out: Velvetleaf plant response rating

CCn1nc(C(C)(C)C)cc1C(=O)Nc1cc(C(=O)N(C)C)ccn1 [Compound 156, 2-[[[3-(1,1-dimethylethyl)-1-ethyl-1H-pyrazol-5-yl]carbonyl]amino]-N,N-dimethyl-4-pyridinecarboxamide]
30%: pest or weed control at 125 g/ha (pigweed; [9]) | pest or weed control at 125 g/ha (blackgrass; 125 g ai/ha)
100%: pest or weed control at 500 g/ha (barnyardgrass [1]; pre-emergence, visual rating 0-100, 0 no effect, 100 complete control, read-out: Plant response rating, Barnyardgrass) | pest or weed control at 125 g/ha (barnyardgrass [1]; pre-emergence, preemergence, 0 to 100 scale, 0 is no effect, 100 is complete control, read-out: Plant response rating, Barnyardgrass) | pest or weed control at 500 g/ha (cocklebur; pre-emergence, visual rating 0-100, 0 no effect, 100 complete control, read-out: Plant response rating, Cocklebur) | pest or weed control at 125 g/ha (cocklebur; pre-emergence, preemergence, 0 to 100 scale, 0 is no effect, 100 is complete control, read-out: Plant response rating, Cocklebur) | pest or weed control at 500 g/ha (giant foxtail; pre-emergence, visual rating 0-100, 0 no effect, 100 complete control, read-out: Plant response rating, Foxtail, Giant) | pest or weed control at 125 g/ha (giant foxtail; pre-emergence, preemergence, 0 to 100 scale, 0 is no effect, 100 is complete control, read-out: Plant response rating, Foxtail, Giant) | pest or weed control at 500 g/ha (lambsquarters; pre-emergence, visual rating 0-100, 0 no effect, 100 complete control, read-out: Plant response rating, Lambsquarters) | pest or weed control at 125 g/ha (lambsquarters; pre-emergence, preemergence, 0 to 100 scale, 0 is no effect, 100 is complete control, read-out: Plant response rating, Lambsquarters) | pest or weed control at 500 g/ha (morningglory; pre-emergence, visual rating 0-100, 0 no effect, 100 complete control, read-out: Plant response rating, Morningglory) | pest or weed control at 500 g/ha (pigweed; pre-emergence, visual rating 0-100, 0 no effect, 100 complete control, read-out: Plant response rating, Pigweed) | pest or weed control at 125 g/ha (pigweed; pre-emergence, preemergence, 0 to 100 scale, 0 is no effect, 100 is complete control, read-out: Plant response rating, Pigweed) | pest or weed control at 500 g/ha (velvetleaf; pre-emergence, visual rating 0-100, 0 no effect, 100 complete control, read-out: Plant response rating, Velvetleaf) | pest or weed control at 125 g/ha (velvetleaf; pre-emergence, preemergence, 0 to 100 scale, 0 is no effect, 100 is complete control, read-out: Plant response rating, Velvetleaf) | pest or weed control at 1000 g/ha (ducksalad) | pest or weed control at 1000 g/ha (barnyardgrass [3])
80%: pest or weed control at 500 g/ha (cocklebur; [5]) | Corn plant response rating (crop injury, 0 = no effect, 100 = complete kill) at 500 g/ha (corn; pre-emergence, 500 g ai/ha, visual rating 0-100, 0 no effect, 100 complete control) | pest or weed control at 500 g/ha (lambsquarters; [7])
10%: pest or weed control at 125 g/ha (barnyardgrass [1]; [4]) | plant injury at 500 g/ha (corn; post-emergence, postemergence, 500 g ai/ha, visual rating, scale 0 (no effect) to 100 (complete control), read-out: Corn plant response rating)
60%: pest or weed control at 125 g/ha (lambsquarters; [7]) | pest or weed control at 125 g/ha (morningglory; pre-emergence, preemergence, 0 to 100 scale, 0 is no effect, 100 is complete control, read-out: Plant response rating, Morningglory) | pest or weed control at 500 g/ha (pigweed; [9]) | pest or weed control at 125 g/ha (velvetleaf; [10]) | pest or weed control at 500 g/ha (blackgrass; 500 g ai/ha)
20%: pest or weed control at 125 g/ha (giant foxtail; [6]) | pest or weed control at 125 g/ha (morningglory; [8]) | plant injury at 500 g/ha (wheat)
50%: pest or weed control at 500 g/ha (morningglory; [8])
0%: plant injury at 125 g/ha (corn; post-emergence, postemergence, 125 g ai/ha, visual rating, scale 0 (no effect) to 100 (complete control), read-out: Corn plant response rating)
90%: pest or weed control at 500 g/ha (velvetleaf; [10]) | plant injury at 1000 g/ha (rice) | pest or weed control at 1000 g/ha [2]
40%: pest or weed control at 500 g/ha (barnyardgrass [1]; [4]) | pest or weed control at 125 g/ha (cocklebur; [5]) | Corn plant response rating (crop injury, 0 = no effect, 100 = complete kill) at 125 g/ha (corn; pre-emergence, preemergence, 125 g ai/ha, 0 to 100 scale, 0 is no effect, 100 is complete control) | pest or weed control at 500 g/ha (giant foxtail; [6]) | pest or weed control at 125 g/ha (wild oat; 125 g ai/ha) | pest or weed control at 500 g/ha (wild oat; 500 g ai/ha)
